Patent US20240239799A1, “(S)-1-(5-((PYRIDIN-3-YL)THIO)PYRAZIN-2-YL)-4'H,6'H-SPIRO[PIPERIDINE-4,5'-PYRROLO [1,2-B]PYRAZOL]-4'-AMINE DERIVATIVES AND SIMILAR COMPOUNDS AS SHP2 INHIBITORS FOR THE TREATMENT OF E.G. CANCER” (C.N.C.C.S. S.C.A.R.L. COLLEZIONE NAZIONALE DEI COMPOSTI …, priority 2021, published 2024)
Where two headings read alike, the source gives them in different places.

Legend:
[1] = molecular target: T1, SHP-2 enzyme (Met1-Leu525) (Homo sapiens, UniProt Q06124); assay: SHP2 inhibition enzymatic assay (DiFMUP substrate, IRS1 peptide activation); type: biochemical; details: 0.5 nM SHP-2, 500 nM IRS1 peptide, 75 μM DiFMUP; read-out: SHP2wt - IC50
T1 construct: synthetized by Origene, Met1-Leu525, cat #TP750155; purchased Origene TP750155
T1 sequence (Q06124 1-525): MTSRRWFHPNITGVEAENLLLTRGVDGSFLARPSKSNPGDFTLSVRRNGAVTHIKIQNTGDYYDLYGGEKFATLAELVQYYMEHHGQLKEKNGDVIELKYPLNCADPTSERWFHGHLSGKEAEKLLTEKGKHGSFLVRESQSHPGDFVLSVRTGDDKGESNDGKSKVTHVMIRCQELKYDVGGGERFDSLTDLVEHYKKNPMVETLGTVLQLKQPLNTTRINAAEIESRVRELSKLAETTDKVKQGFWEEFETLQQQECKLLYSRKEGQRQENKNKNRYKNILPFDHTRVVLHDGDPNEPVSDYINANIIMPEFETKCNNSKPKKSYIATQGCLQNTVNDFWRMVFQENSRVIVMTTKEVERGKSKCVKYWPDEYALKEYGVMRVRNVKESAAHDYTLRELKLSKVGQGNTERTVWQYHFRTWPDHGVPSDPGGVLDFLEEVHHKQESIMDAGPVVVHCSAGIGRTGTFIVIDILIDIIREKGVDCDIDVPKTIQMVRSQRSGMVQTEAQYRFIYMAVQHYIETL
Protocol: Assay volume of 20 μL/well was assembled in 384 well black polystyrene low-binding microplates (Greiner), using the following buffer: 60 mM HEPES pH 7.2, 75 mM NaCl, 75 mM KCl, 1 mM EDTA pH 8, 0.05% tween-20, 5 mM DTT. The SHP-2 enzyme (synthetized by Origene, Met1-Leu525, cat #TP750155) was used at a final concentration of 0.5 nM.
Briefly, DMSO serially diluted testing compounds were transferred to the bottom of the assay plate. SHP2 was then added together with the IRS1 peptide 30 min post incubation, the DiFMUP substrate was added to the reaction and incubated 30 min at rt. […] The fluorescence was detected by a microplate reader (Envision, PerkinElmer) according to the DiFMUP excitation and emission wavelength. The lower the fluorescence the higher the SHP2 inhibition.
The percentage inhibition is fitted against the compound dilutions with a four-parameter logistic regression. The inflection point (i.e. the concentration at which half-maximal inhibition is achieved) is the IC50.

[2] = tested on: phospho-ERK1/2 (Thr202/Tyr204) in KYSE-520 cells; assay: Phospho-ERK cellular assay (TR-FRET); type: cell-based; details: KYSE-520 cells, 2 h at 37° C., read-out: pERK IC50
Protocol: ERK phosphorylation was detected using the “Advanced phospho-ERK1/2 (Thr202/Tyr204)” TR-FRET kit (Cisbio, Cat #64AERPEG/H), following the manufacturer reagents and instructions.
Briefly, 20.000/well KYSE-520 cells (DSMZ ACC 371) were plated in 6 μL RPMI-1640 (Invitrogen) growth medium, into 384 white low-volume high base TC microplates (Greiner). After an overnight incubation, cells were treated with DMSO serial diluted compounds and incubated for 2 h at 37° C. After incubation, 2 μL/well of 4X Lysis Buffer (Cisbio 64KL1FDF), were added and incubated with cells for 30 min on gentle shaking. Finally, lysates were added with 2 μL/well of Eu cryptate (donor) and D2 (acceptor) conjugated antibodies (as provided by the Cisbio kit #64AERPEG/H) diluted 1:100 in Detection Buffer (as provided by the Cisbio kit #64AERPEG/H). Plates were then sealed and incubated at rt in the dark. After an overnight incubation, the TR-FRET signal was detected on a suitable reader (Envision, PerkinElmer). The lower the TR-FRET signal the higher the higher the SHP2 inhibition in cells.
The activity of each compound dilution was calculated as percentage between vehicle DMSO treated cells and no cells, 0% inhibition and 100% inhibition respectively. The percentage activity is fitted against the compound dilutions with a four-parameter logistic regression. The inflection point (i.e. the concentration at which half-maximal inhibition is achieved) is the IC50.

| IC50 [1] [nM] | IC50 [2] [nM] | IC50 ([2]; Homo sapiens, KYSE-520, 2 h) [nM] | SMILES |
| --- | --- | --- | --- |
| > 300 | > 500 | – | Cc1nc(N2CCC3(CC2)Cn2nccc2[C@H]3N)cc(=O)n1-c1cccc(Cl)c1Cl (single isomer, unassigned) [Example 77b] |
| ≤ 50 | 100 to 500 | – | Cc1nc(N2CCC3(CC2)Cn2nccc2[C@H]3N)c(Cl)c(=O)n1-c1cccc(Cl)c1Cl (single isomer, unassigned) [Example 78a] |
| > 300 | > 500 | – | Cc1nc(N2CCC3(CC2)Cn2nccc2[C@H]3N)c(Cl)c(=O)n1-c1cccc(Cl)c1Cl (single isomer, unassigned) [Example 78b] |
| ≤ 50 | – | > 500 | Nc1nccc(Sc2cnc3[nH]c(N4CCC5(CC4)Cn4nccc4[C@H]5N)nc3n2)c1Cl [Example 2, (S)-1-(5-((2-amino-3-chloropyridin-4-yl)thio)-1H-imidazo[4,5-b]pyrazin-2-yl)-4′H,6′H-spiro[piperidine-4,5′-pyrrolo[1,2-b]pyrazol]-4′-amine] |
| ≤ 50 | – | 100 to 500 | COc1cc2n(n1)CC1(CCN(c3cnc(Sc4ccnc(N)c4Cl)cn3)CC1)[C@@H]2N [Example 12, (S)-1-(5-((2-amino-3-chloropyridin-4-yl)thio)pyrazin-2-yl)-2′-methoxy-4′H,6′H-spiro[piperidine-4,5′-pyrrolo[1,2-b]pyrazol]-4′-amine] |
| 50 to 300 | – | > 500 | N[C@@H]1c2ccnn2CC12CCN(c1ncc(Sc3ccnc4c3OC[C@H]3CC5(CC5)CN43)n3cncc13)CC2 [Example 24, (S)-1-(5-(((R)-6a′,7′-dihydro-6′H,9′H-spiro[cyclopropane-1,8′-pyrido[3,2-b]pyrrolo[1,2-d][1,4]oxazin]-4′-yl)thio)imidazo[1,5-a]pyrazin-8-yl)-4′H,6′H-spiro[piperidine-4,5′-pyrrolo[1,2-b]pyrazol]-4′-amine] |
| ≤ 50 | – | – | Cc1c(N2CCC3(CC2)Cn2nccc2[C@H]3N)nc(C)n(-c2cccc(Cl)c2Cl)c1=O [Example 88, (S)-6-(4′-amino-4′H,6′H-spiro[piperidine-4,5′-pyrrolo[1,2-b]pyrazol]-1-yl)-3-(2,3-dichlorophenyl)-2,5-dimethylpyrimidin-4(3H)-one] |

Continued, compound first:

| SMILES | IC50 [1] [nM] | IC50 [2] [nM] | IC50 ([2]; Homo sapiens, KYSE-520, 2 h) [nM] |
| --- | --- | --- | --- |
| Cc1nc(N2CCC3(CC2)Cn2nccc2[C@H]3N)cc(=O)n1-c1cccc(Cl)c1Cl (single isomer, unassigned) [Example 77a] | ≤ 50 | 100 to 500 | – |
| N[C@@H]1c2ccnn2CC12CCN(c1nc3nc(Sc4cccnc4C(F)(F)F)cnc3[nH]1)CC2 [Example 1, (S)-1-(5-((2-(trifluoromethyl)pyridin-3-yl)thio)-1H-imidazo[4,5-b]pyrazin-2-yl)-4′H,6′H-spiro[piperidine-4,5′-pyrrolo[1,2-b]pyrazol]-4′-amine] | ≤ 50 | – | > 500 |
| Nc1nc(N2CCC3(CC2)Cn2nccc2[C@H]3N)cnc1Sc1cccnc1C(F)(F)F [Example 3, (S)-1-(6-amino-5-((2-(trifluoromethyl)pyridin-3-yl)thio)pyrazin-2-yl)-4′H,6′H-spiro[piperidine-4,5′-pyrrolo[1,2-b]pyrazol]-4′-amine] | ≤ 50 | – | < 100 |
| Nc1nc(N2CCC3(CC2)Cn2nccc2[C@H]3N)cnc1Sc1ccnc(N)c1Cl [Example 4, (S)-1-(6-amino-5-((2-amino-3-chloropyridin-4-yl)thio)pyrazin-2-yl)-4′H,6′H-spiro[piperidine-4,5′-pyrrolo[1,2-b]pyrazol]-4′-amine] | ≤ 50 | – | < 100 |
| Cc1cnn2c1[C@@H](N)C1(CCN(c3cnc(Sc4ccnc(N)c4Cl)cn3)CC1)C2 [Example 10, (S)-1-(5-((2-amino-3-chloropyridin-4-yl)thio)pyrazin-2-yl)-3′-methyl-4′H,6′H-spiro[piperidine-4,5′-pyrrolo[1,2-b]pyrazol]-4′-amine] | ≤ 50 | – | < 100 |
| N[C@@H]1c2ccnn2CC12CCN(c1ncc(Sc3ccnc4c3OC[C@@H]3CCCN43)c3nccn13)CC2 [Example 17, (S)-1-(8-(((S)-6a,7,8,9-tetrahydro-6H-pyrido[3,2-b]pyrrolo[1,2-d][1,4]oxazin-4-yl)thio)imidazo[1,2-c]pyrimidin-5-yl)-4′H,6′H-spiro[piperidine-4,5′-pyrrolo[1,2-b]pyrazol]-4′-amine] | ≤ 50 | – | < 100 |
| Nc1nc(N2CCC3(CC2)Cn2nc4c(c2[C@H]3N)CCC4)cnc1Sc1ccnc(N)c1Cl [Example 20, (S)-1′-(6-amino-5-((2-amino-3-chloropyridin-4-yl)thio)pyrazin-2-yl)-1,2,3,8-tetrahydro-6H-spiro[cyclopenta[d]pyrrolo[1,2-b]pyrazole-7,4′-piperidin]-8-amine] | ≤ 50 | – | < 100 |
| Nc1nccc(Sc2cnc(N3CCC4(CC3)Cn3nc5c(c3C4O)CCC5)c3cncn23)c1Cl (stereo not shown) [Example 22, 1′-(5-((2-amino-3-chloropyridin-4-yl)thio)imidazo[1,5-a]pyrazin-8-yl)-1,2,3,8-tetrahydro-6H-spiro[cyclopenta[d]pyrrolo[1,2-b]pyrazole-7,4′-piperidin]-8-ol] | > 300 | – | > 500 |
| N[C@@H]1c2ccnn2CC12CCN(c1cnc(Sc3ccnc4c3OC[C@@H]3CC5(CC5)CN43)cn1)CC2 [Example 25, (S)-1-(5-(((S)-6a′,7′-dihydro-6′H,9′H-spiro[cyclopropane-1,8′-pyrido[3,2-b]pyrrolo[1,2-d][1,4]oxazin]-4′-yl)thio)pyrazin-2-yl)-4′H,6′H-spiro[piperidine-4,5′-pyrrolo[1,2-b]pyrazol]-4′-amine] | ≤ 50 | – | < 100 |
| N[C@@H]1c2ccnn2CC12CCN(c1cnc(Sc3ccnc(-n4cccn4)c3Cl)cn1)CC2 [Example 33, (S)-1-(5-((3-chloro-2-(1H-pyrazol-1-yl)pyridin-4-yl)thio)pyrazin-2-yl)-4′H,6′H-spiro[piperidine-4,5′-pyrrolo[1,2-b]pyrazol]-4′-amine] | – | – | < 100 |
| Cc1cn2ccc(Sc3cnc(N4CCC5(CC4)Cn4nccc4[C@H]5N)cn3)c(Cl)c2n1 [Example 43, (S)-1-(5-((8-chloro-2-methylimidazo[1,2-a]pyridin-7-yl)thio)pyrazin-2-yl)-4′H,6′H-spiro[piperidine-4,5′-pyrrolo[1,2-b]pyrazol]-4′-amine] | – | – | < 100 |
| Nc1nc(N2CCC3(CC2)Cn2nccc2[C@H]3N)cnc1Sc1ccn2ccnc2c1Cl [Example 44, (S)-1-(6-amino-5-((8-chloroimidazo[1,2-a]pyridin-7-yl)thio)pyrazin-2-yl)-4′H,6′H-spiro[piperidine-4,5′-pyrrolo[1,2-b]pyrazol]-4′-amine] | – | – | < 100 |
| Cc1nccc(Sc2cnc(N3CCC4(CC3)Cn3cccc3[C@H]4N)cn2)c1F [Example 87, (S)-1-(5-((3-fluoro-2-methylpyridin-4-yl)thio)pyrazin-2-yl)-1′H,3′H-spiro[piperidine-4,2′-pyrrolizin]-1′-amine] | ≤ 50 | – | – |
| Cc1nccc(-c2ncc3c(N4CCC5(CC4)Cn4nccc4[C@H]5N)nccn23)c1F [Example 89, (S)-1-(3-(3-fluoro-2-methylpyridin-4-yl)imidazo[1,5-a]pyrazin-8-yl)-4′H,6′H-spiro[piperidine-4,5′-pyrrolo[1,2-b]pyrazol]-4′-amine] | 50 to 300 | – | – |
| N[C@@H]1c2ccnn2CC12CCN(c1ccc(Oc3cccc(Cl)c3Cl)nc1)CC2 [Example 90, (S)-1-(6-(2,3-dichlorophenoxy)pyridin-3-yl)-4′H,6′H-spiro[piperidine-4,5′-pyrrolo[1,2-b]pyrazol]-4′-amine] | 50 to 300 | – | – |
